Experiments:
G551D-CFTR = target: T1, G551D-CFTR (Homo sapiens, UniProt P13569, G551D); experiment: Chloride transport (short circuit current) in Ussing chamber, G551D-CFTR overexpressed in Fischer Rat Thyroid cells; assay type: cell-based; settings: 0.0008-0.1 μM sequential additions, 10 μM forskolin, 35° C.
T1 construct: expressed in transfected cells; host or cells: Fischer Rat Thyroid (FRT) cells
Protocol: Chloride transport of G551D-CFTR overexpressed in Fischer Rat Thyroid cells was measured in an Ussing chamber apparatus. The short circuit current (ISC) was monitored after basolateral permeabilization with 100 μM amphotericin and activation of CFTR by 10 μM forskolin. Testing was performed in the presence of a chloride gradient at 35° C. Test articles were applied in an additive and sequential manner to epithelia at 0.0008 μM, 0.004 μM, 0.02 μM, and 0.1 μM along with 0.5 μL, 2.0 μL, 0.5 μL, and 2.5 μL additions of the DMSO vehicle. Values are the means of responses from each test concentration applied to six epithelia. (FIG. 4A)

[1] = Human crossover study for D9-ivacaftor and D18-ivacaftor (25 mg single dose); assay type: in vivo; settings: 25 mg single oral dose, aqueous suspension, fasted
Protocol: Six healthy volunteers were enrolled in a cross-over comparison of 25 mg D9-ivacaftor (CTP-656) and 25 mg D18-ivacaftor (FIG. 7A). The objective of the study was to compare the pharmacokinetics of a single dose of 25 mg D9-ivacaftor and 25 mg D18-ivacaftor. Doses of D9-ivacaftor (CTP-656) and D18-ivacaftor were administered as an aqueous suspension. All doses of D9-ivacaftor (CTP-656) and D18-ivacaftor were administered to fasted subjects (three subjects per group). There was a 7 day washout between doses.

[2] = Parent vs. metabolite pharmacokinetic profile after a single 150 mg oral dose; assay type: in vivo, human; settings: 150 mg single oral dose, FIG. 3
Protocol: Ten healthy male and female volunteers were enrolled in a single ascending dose study of 3 doses of CTP-656 (75, 150 and 300 mg), with a cross-over comparison of 150 mg CTP-656 and 150 mg Kalydeco® (the trade name of ivacaftor) (FIG. 5). Doses of CTP-656 were administered as an aqueous suspension, and Kalydeco was administered as a tablet. All doses of CTP-656 and Kalydeco were administered within 30 minutes after the start of a high-fat containing breakfast. There was a 7 day washout between doses. The objective of the study was to compare the pharmacokinetics of single ascending doses (75, 150, and 300 mg) of CTP-656, to compare the pharmacokinetics of a single dose of 150 mg CTP-656 and 150 mg Kalydeco and to assess the safety and tolerability of CTP-656. […] There is a significant reduction in the production of the metabolites D8-M1 and D6-M6 from CTP-656 relative to the production of the metabolites M1 and M6 from ivacaftor. Thus, the parent-to-M1 ratio of AUC0-24 hr for CTP-656/D8-M1 is 2.0, compared to 0.58 for the ratio of ivacaftor to M1. […] Further, the parent-to-M6 ratio of AUC0-24 hr for CTP-656/D6-M6 is 4.0, compared to 1.5 for the ratio of ivacaftor to M6. […] As a result, the most pharmacologically-active species (i.e., the parent) is the most abundant species for CTP-656, but not for ivacaftor.

[3] = Human crossover study for D9-ivacaftor and ivacaftor (150 mg tablets); assay type: in vivo; settings: 150 mg single dose
Protocol: Healthy volunteers were enrolled in a cross-over comparison of 150 mg D9-ivacaftor (CTP-656) and 150 mg ivacaftor (Kalydeco)(FIG. 8, left panel). The objective of the study was to compare the safety, tolerability, and pharmacokinetics of a single dose of 150 mg D9-ivacaftor and 150 mg ivacaftor. Doses of D9-ivacaftor (CTP-656) and ivacaftor were administered as tablets (the D9-ivacaftor was administered as two 75 mg tablets). All doses of D9-ivacaftor (CTP-656) and […] were administered to fed subjects (high fat breakfast) (four subjects per sequence). There was a 7 day washout between doses. Blood samples were taken at intervals.

[4] = Phase 1 single ascending dose (SAD) clinical trial: pharmacokinetics, safety and tolerability; assay type: in vivo, human; settings: for AUC(0-inf): read-out: AUC0-inf, mean; for concentration at 24 h: read-out: C24 hr, mean
Protocol: Ten healthy male and female volunteers were enrolled in a single ascending dose study of 3 doses of CTP-656 (75, 150 and 300 mg), with a cross-over comparison of 150 mg CTP-656 and 150 mg Kalydeco® (the trade name of ivacaftor) (FIG. 5). Doses of CTP-656 were administered as an aqueous suspension, and Kalydeco was administered as a tablet. All doses of CTP-656 and Kalydeco were administered within 30 minutes after the start of a high-fat containing breakfast. There was a 7 day washout between doses. The objective of the study was to compare the pharmacokinetics of single ascending doses (75, 150, and 300 mg) of CTP-656, to compare the pharmacokinetics of a single dose of 150 mg CTP-656 and 150 mg Kalydeco and to assess the safety and tolerability of CTP-656.

[5] = both sexes, human, in vivo, 75 mg single oral dose, after high-fat breakfast
[6] = both sexes, human, in vivo, 150 mg single oral dose, after high-fat breakfast, CTP-656 aqueous suspension, Kalydeco tablet
[7] = both sexes, human, in vivo, 300 mg single oral dose, after high-fat breakfast
[8] = both sexes, human, plasma, 150 mg single oral dose, after high-fat breakfast, CTP-656 aqueous suspension, Kalydeco tablet

T1 sequence (P13569 whole entry G551D): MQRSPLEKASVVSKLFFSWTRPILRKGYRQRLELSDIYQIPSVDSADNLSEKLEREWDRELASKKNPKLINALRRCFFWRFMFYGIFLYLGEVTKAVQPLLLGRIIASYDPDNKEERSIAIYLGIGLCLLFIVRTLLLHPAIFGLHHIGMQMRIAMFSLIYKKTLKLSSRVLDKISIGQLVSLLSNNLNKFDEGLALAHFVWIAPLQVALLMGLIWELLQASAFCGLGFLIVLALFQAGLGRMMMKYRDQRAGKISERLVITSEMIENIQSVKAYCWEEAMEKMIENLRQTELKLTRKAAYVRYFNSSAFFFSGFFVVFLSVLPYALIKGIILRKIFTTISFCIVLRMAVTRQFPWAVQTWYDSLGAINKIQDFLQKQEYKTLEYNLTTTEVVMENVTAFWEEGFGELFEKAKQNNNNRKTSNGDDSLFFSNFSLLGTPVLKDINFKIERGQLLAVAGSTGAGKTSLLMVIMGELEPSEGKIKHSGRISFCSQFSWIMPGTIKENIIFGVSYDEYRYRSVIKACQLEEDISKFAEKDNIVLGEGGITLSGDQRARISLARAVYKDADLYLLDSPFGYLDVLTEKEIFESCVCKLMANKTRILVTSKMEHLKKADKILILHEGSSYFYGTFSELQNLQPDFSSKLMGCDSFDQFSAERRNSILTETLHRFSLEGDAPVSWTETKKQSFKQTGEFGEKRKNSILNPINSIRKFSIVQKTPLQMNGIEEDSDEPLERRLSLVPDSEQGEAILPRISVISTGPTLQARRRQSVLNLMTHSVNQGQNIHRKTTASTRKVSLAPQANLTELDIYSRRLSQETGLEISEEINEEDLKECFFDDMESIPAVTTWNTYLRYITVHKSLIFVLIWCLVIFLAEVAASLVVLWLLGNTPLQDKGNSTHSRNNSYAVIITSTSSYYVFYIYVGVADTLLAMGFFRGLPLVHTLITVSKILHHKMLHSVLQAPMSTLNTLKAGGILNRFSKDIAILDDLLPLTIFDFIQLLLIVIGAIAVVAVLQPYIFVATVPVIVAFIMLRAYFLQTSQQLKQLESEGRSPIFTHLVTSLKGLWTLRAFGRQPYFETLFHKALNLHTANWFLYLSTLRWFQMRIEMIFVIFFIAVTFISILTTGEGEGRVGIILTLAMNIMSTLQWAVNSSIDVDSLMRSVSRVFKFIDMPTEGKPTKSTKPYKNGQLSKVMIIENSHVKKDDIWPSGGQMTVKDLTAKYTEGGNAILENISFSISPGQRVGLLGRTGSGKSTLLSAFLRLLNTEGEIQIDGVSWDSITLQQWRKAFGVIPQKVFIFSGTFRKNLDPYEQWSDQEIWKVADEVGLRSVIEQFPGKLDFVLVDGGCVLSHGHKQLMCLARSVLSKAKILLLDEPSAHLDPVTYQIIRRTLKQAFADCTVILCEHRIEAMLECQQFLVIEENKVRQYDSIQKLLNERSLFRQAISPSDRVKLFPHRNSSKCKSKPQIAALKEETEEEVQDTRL

For `[2H]C([2H])([2H])C(c1cc(C(C)(C)C)c(NC(=O)c2c[nH]c3ccccc3c2=O)cc1O)(C([2H])([2H])[2H])C([2H])([2H])[2H]` [CTP-656], the “in vitro CFTR potentiation (short circuit current)” value (G551D-CFTR) was “equivalent in vitro CFTR potentiation”, the “PK profile compared to D18-ivacaftor” value [1] was “superior PK profile” and the Cmax ([1]; human, in vivo) was 270 ng/mL. It also gave an AUC(0-inf) ([1]; human, in vivo, read-out: AUC0-inf, mean) of 3810 ng·h/mL, a concentration at 24 h ([1]; human, in vivo, read-out: C24 hr, mean) of 52.6 ng/mL and a Tmax ([1]; human, in vivo, read-out: Tmax, median) of 3 h. The “abundance of parent versus metabolites in plasma over time” value [2] was “most abundant species in plasma at all times measured”, the “half-life, increase over the half-life of ivacaftor” value ([3]; fed) was “about 40%” and the “oral clearance relative to ivacaftor” value ([3]; fed) was “about one-third that of ivacaftor”. For the same molecule, the “AUC0-24 hr compared to ivacaftor” value ([3]; fed (high fat breakfast)) was “approximately 3 fold”, the “C24 hr compared to ivacaftor” value ([3]; fed (high fat breakfast)) was “approximately 3 fold” and the half-life ([3]; human, in vivo, oral, fed) was roughly 15 h. The “CL/F, mean” value ([4]; 75 mg single oral dose, after high-fat breakfast) was 4.9 L/h, the “relationship between dose and exposure” value ([4]; 75 mg, 150 mg and 300 mg, log-log regression analysis) was “greater than dose proportional” and the “AUC0-inf relative to that of Kalydeco tablets” value ([4]; 150 mg single oral dose each) was roughly 3.5 fold. For the same molecule, the “C24 hr relative to that of Kalydeco tablets” value ([4]; 150 mg single oral dose each) was 4.2 fold, the “CL/F relative to that of Kalydeco” value ([4]; 150 mg single oral dose each) was roughly 30% and the “Cmax relative to that of Kalydeco tablets” value ([4]; 150 mg single oral dose each) was roughly 2 fold. For the same molecule, the “Ratio of CTP-656 to Kalydeco, AUC0-24 hr” value ([4]; 150 mg single oral dose each) was 2.8, the “Ratio of CTP-656 to Kalydeco, C12 hr” value ([4]; 150 mg single oral dose each) was 3.2 and the “Ratio of CTP-656 to Kalydeco, C24 hr” value ([4]; 150 mg single oral dose each) was 4.2. For the same molecule, the “Ratio of CTP-656 to Kalydeco, Cmax” value ([4]; 150 mg single oral dose each) was 2.0, the “Ratio of CTP-656 to Kalydeco, T1/2” value ([4]; 150 mg single oral dose each) was 1.3 and the “CL/F, mean” value ([4]; 150 mg single oral dose, after high-fat breakfast, CTP-656 aqueous suspension, Kalydeco tablet) was 3.8 L/h. For the same molecule, the “CL/F, mean” value ([4]; 300 mg single oral dose, after high-fat breakfast) was 3.2 L/h, the “differences in safety assessments between CTP-656 and Kalydeco” value ([4]; CTP-656 75, 150 or 300 mg vs Kalydeco 150 mg) was “no clinically significant differences” and the “pharmacokinetic profile compared to Kalydeco” value ([4]; Phase 1 cross-over comparison, 150 mg) was “superior pharmacokinetic profile”. It also gave a half-life ([4]; both sexes, human, in vivo, oral, 300 mg, across single doses of 75, 150 and 300 mg, read-out: apparent terminal half-life) of 14 to 17 h, a half-life ([4]; both sexes, human, in vivo, po, 75 mg, 75 mg single oral dose, after high-fat breakfast, read-out: T1/2, mean (converted)) of 14.1 h and a half-life ([4]; both sexes, human, in vivo, po, 150 mg, 150 mg single oral dose, after high-fat breakfast, CTP-656 aqueous suspension, Kalydeco tablet, read-out: T1/2, mean (converted)) of 15 h. For the same molecule, the half-life ([4]; both sexes, human, in vivo, po, 300 mg, 300 mg single oral dose, after high-fat breakfast, read-out: T1/2, mean (converted)) was 17.3 h, the Cmax [4, 5] was 838 ng/mL and the Tmax ([4]; both sexes, human, in vivo, 75 mg single oral dose, after high-fat breakfast, healthy volunteers, read-out: Tmax, median) was 5 h. It also gave an AUC(0-inf) [4, 5] of 16600 ng·h/mL, a concentration at 24 h [4, 5] of 270 ng/mL and a Cmax [4, 6] of 2210 ng/mL. It also gave an AUC(0-inf) [4, 6] of 44900 ng·h/mL, a concentration at 24 h [4, 6] of 712 ng/mL and a Tmax ([4]; both sexes, human, in vivo, 150 mg single oral dose, after high-fat breakfast, CTP-656 aqueous suspension, Kalydeco tablet, read-out: Tmax, median) of 5 h. The Cmax [4, 7] was 4970 ng/mL, the AUC(0-inf) [4, 7] was 105000 ng·h/mL and the concentration at 24 h [4, 7] was 1540 ng/mL. It also gave a Tmax ([4]; both sexes, human, in vivo, 300 mg single oral dose, after high-fat breakfast, read-out: Tmax, median) of 5 h, a half-life ([4]; both sexes, human, plasma, po, 150 mg, 150 mg single oral dose, after high-fat breakfast, CTP-656 aqueous suspension, Kalydeco tablet, read-out: T1/2, mean (converted)) of 15 h and a Cmax [4, 8] of 2210 ng/mL. For the same molecule, the concentration at 24 h [4, 8] was 712 ng/mL, the AUC(0-t) ([4]; both sexes, human, plasma, 150 mg single oral dose, n = 9, read-out: AUC0-24 hr, mean) was 27300 ng·h/mL and the concentration at 12 h ([4]; both sexes, human, plasma, 150 mg single oral dose, n = 9, read-out: C12 hr, mean) was 1310 ng/mL. The Tmax ([4]; both sexes, human, plasma, 150 mg single oral dose, n = 9, read-out: Tmax, range) was 5 to 10 h and the tolerability ([4]; single oral doses following a high-fat meal, CTP-656 75, 150, 300 mg, Kalydeco 150 mg) was “generally well tolerated”.

— US20180353500A1, “ADMINISTRATION OF DEUTERATED CFTR POTENTIATORS” (Vertex Pharmaceuticals (Europe) Limited, priority 2015, published 2018)
